US20230365585A1, “BENZODIAZEPINE DERIVATIVES USEFUL IN TREATING A RESPIRATORY SYNCYTIAL VIRUS INFECTION” (priority 2020, published 2023)

Tests used:
RSV A2 = assay: RSV plaque reduction assay; format: cell-based, RSV (RSV A2 ECACC, 0709161v); conditions: Hep-G2 cells, RSV A2, 2 days, mean of at least two experiments
Outline: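 Hep-G2 monolayers infected with 100 PFU/well RSV A2 premixed with eight compound dilutions, 2 h at 37° C, then overlaid with 0.8% CMC/2% FBS DMEM containing compound for 2 days. Plaques immunostained (HRP/TrueBlue) and counted; EC50 from % infection versus virus control, mean of at least two experiments.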

Hep-G2 cells = assay: Cell cytotoxicity CC50; format: cell-based; conditions: mean of at least two experiments
Text: (§1) Plates were scanned and analysed using the Immunospot S6 Macro analyser, which is equipped with BioSpot analysis software for counting immunostained plaques (virospots). Plaque counts were used to calculate % infection relative to the mean of the plaque count in the virus control wells for RSV. […] Plaque EC50 and cell toxicity CC50 values are a mean of at least two experiments and figures are rounded to whole units.

Cell cytotoxicity CC50 = format: cell-based; conditions: human; mean of at least two experiments
Text: as §1

[1] = Liver microsomal stability (rat); format: in vitro ADME; conditions: 1 µM compound; for half-life at 1 µM: pooled liver microsomes, pH 7.4, 0.5 mg/mL protein, read-out: Liver Microsomal Stability t½
Method: (§2) Compounds were subjected to the following assays to investigate liver microsomal stability.
(§3) Pooled liver microsomes were purchased from a reputable commercial supplier and stored at -80° C. prior to use. Microsomes (final protein concentration 0.5 mg/mL), 0.1 M phosphate buffer pH 7.4 and test compound (final substrate concentration 1 µM; final DMSO concentration 0.25%) were pre-incubated at 37° C. prior to the addition of NADPH (final concentration 1 mM) to initiate the reaction. The final incubation volume was 50 µL. A control incubation was included for each compound tested where 0.1 M phosphate buffer pH 7.4 was added instead of NADPH (minus NADPH). Two control compounds were included with each species. All incubations were performed singularly for each test compound. Each compound was incubated for 0, 5, 15, 30 and 45 min. The control (minus NADPH) was incubated for 45 min only. The reactions were stopped by transferring incubate into acetonitrile at the appropriate time points, in a 1:3 ratio. The termination plates are centrifuged at 3,000 rpm for 20 min at 4° C. to precipitate the protein. Following protein precipitation, the sample supernatants were combined in cassettes of up to 4 compounds, internal standard added, and samples analysed by LC-MS/MS. From a plot of In peak area ratio (compound peak area/internal standard peak area) against time, the gradient of the line was determined. Subsequently, half-life (t½) and intrinsic clearance (CLint) were calculated.

[2] = Liver microsomal stability (dog); format: in vitro ADME; conditions: 1 µM compound; for half-life at 1 µM: pooled liver microsomes, pH 7.4, 0.5 mg/mL protein, read-out: Liver Microsomal Stability t½
Method: as §2, §3

[3] = Liver microsomal stability (human); format: in vitro ADME; conditions: 1 µM compound; for half-life at 1 µM: pooled liver microsomes, pH 7.4, 0.5 mg/mL protein, read-out: Liver Microsomal Stability t½
Method: as §2, §3

RSV = conditions: Antimicrobial Agents and Chemotherapy, September 2007, 3346-3353; cited from earlier work
[4] = In vivo pharmacokinetics in rats; design: species or system rats [Sprague Dawley (SD)]; conditions: male SD rats
Method: The pharmacokinetics of compounds were studied in vivo in rats at doses of 1 mg/kg (IV) and 10 mg/kg (PO).
Male rats [Sprague Dawley (SD)] surgically prepared with a jugular vein cannula were treated with experimental compounds via intravenous administration (IV; n=3; 1 mg/kg) or oral administration (PO; n=3; 10 mg/kg). Compounds were formulated as a solution in 40:60 dimethylacetamide:saline (IV administration) and a solution of 10% DMSO, 10% cremaphor in water (80%) (PO administration). […] Serial blood samples were collected via the cannula at 0.02, 0.08, 0.25, 0.5, 1, 2, 4, 6, 8 and 24 h post IV dosing of compound, and at 0.08, 0.25, 0.5, 1, 2, 4, 6, 8 and 24 h post oral dosing of compound, and plasma was prepared by centrifugation and stored immediately at -80° C. Samples were subsequently thawed, prepared for analysis by protein precipitation with acetonitrile, and analysed by tandem LCMS using electrospray ionisation using a matrix-matched calibration curve. PK parameters were calculated from the resulting data.

[5] = human respiratory syncytial virus, HepG2, 48 h

Compound: CCC1CCCn2nc(-c3ccccc3F)c(C(=O)N[C@H]3N=C(c4ccccc4)c4cccc(F)c4NC3=O)c2O1 (single isomer, unassigned) [Example 25-2, (5S*)-5-ethyl-2-(2-fluorophenyl)-N-[(3S)-9-fluoro-2-oxo-5-phenyl-1,3-dihydro-1,4-benzodiazepin-3-yl]-5,6,7,8-tetrahydropyrazolo[5,1-b][1,3]oxazepine-3-carboxamide]
- EC50 (RSV A2): 83 nM
- CC50 (Hep-G2 cells): > 25000 nM

Compound: CCC1CCCn2nc(-c3ccc(C)nc3)c(C(=O)N[C@H]3N=C(c4ccccc4)c4ccccc4NC3=O)c2O1 (single isomer, unassigned) [Example 26-2, (5S*)-5-ethyl-2-(6-methylpyridin-3-yl)-N-[(3S)-2-oxo-5-phenyl-2,3-dihydro-1H-1,4-benzodiazepin-3-yl]-5H,6H,7H,8H-pyrazolo[3,2-b][1,3]oxazepine-3-carboxamide]
- EC50 (RSV A2): 329 nM
- CC50 (Hep-G2 cells): > 25000 nM

Compound: CCC1CCCn2nc(-c3ccc(C)nc3)c(C(=O)N[C@H]3N=C(c4ccccc4)c4cccc(F)c4NC3=O)c2O1 (single isomer, unassigned) [Example 27-2, (5S*)-5-ethyl-N-[(3S)-9-fluoro-2-oxo-5-phenyl-2,3-dihydro-1H-1,4-benzodiazepin-3-yl]-2-(6-methylpyridin-3-yl)-5H,6H,7H,8H-pyrazolo[3,2-b][1,3]oxazepine-3-carboxamide]
- EC50 (RSV A2): 259 nM
- CC50 (Hep-G2 cells): > 25000 nM

Compound: O=C(N[C@H]1N=C(c2ccccc2)c2cccc(F)c2NC1=O)c1c(-c2ccccc2F)nn2c1OCCCC2 [Example 2, N-[(3S)-9-Fluoro-2-oxo-5-phenyl-1,3-dihydro-1,4-benzodiazepin-3-yl]-2-(2-fluorophenyl)-5,6,7,8-tetrahydropyrazolo[5,1-b][1,3]oxazepine-3-carboxamide]
- EC50 (RSV A2; [5]): 33 nM
- CC50 (Cell cytotoxicity CC50): > 25000 nM
- half-life at 1 µM [1]: 0.853 h
- half-life at 1 µM [2]: 5.42 h
- half-life at 1 µM [3]: 6.05 h

Compound: O=C(N[C@H]1N=C(c2ccccc2)c2cccc(F)c2NC1=O)c1c(-c2ccccc2F)nn2c1OCC(F)(F)CC2 [Example 28, 6,6-Difluoro-N-[(3S)-9-fluoro-2-oxo-5-phenyl-2,3-dihydro-1H-1,4-benzodiazepin-3-yl]-2-(2-fluorophenyl)-5H,6H,7H,8H-pyrazolo[3,2-b][1,3]oxazepine-3-carboxamide]
- EC50 (RSV A2; [5]): 45 nM
- CC50 (Cell cytotoxicity CC50): > 25000 nM
- half-life at 1 µM [1]: 3.25 h
- half-life at 1 µM [2]: 31 h
- half-life at 1 µM [3]: 11.2 h

Compound: O=C(Nc1ccccc1F)N[C@H]1N=C(c2ccccc2)c2ccccc2NC1=O [RSV604]
- anti-RSV activity (RSV): sub-micromolar

Compound: N-((S)-9-fluoro-2-oxo-5-phenyl-2,3-dihydro-1H-benzo[b]azepin-3-yl)-2-(2-fluorophenyl)-5,6,7,8-tetrahydro-5,8-methanopyrazolo[5,1-b][1,3]oxazepine-3-carboxamide [Example 19]
- EC50 (RSV A2): 37 nM
- CC50 (Hep-G2 cells): > 25000 nM
- Liver Microsomal Stability t½ ([1]; rat liver microsomes, 0.5 mg/mL protein): 2.13 h
- Liver Microsomal Stability t½ ([2]; dog liver microsomes, 0.5 mg/mL protein): 1.92 h
- Liver Microsomal Stability t½ ([3]; human liver microsomes, 0.5 mg/mL protein): 1.23 h
- C 8 h ([4]; 8 h, route not stated in the row): 110 ng/mL
- IV t½ ([4]; IV 1 mg/kg): 2.30 h
- PO AUClast ([4]; PO 10 mg/kg): 4487 ng·h/mL
- PO t½ ([4]; PO 10 mg/kg): 2.9 h
- F ([4]; PO 10 mg/kg vs IV 1 mg/kg): 39.3%
- Cmax ([4]; route not stated in the row, study IV 1 mg/kg, PO 10 mg/kg): 949 ng/mL
- Cl ([4]; study IV 1 mg/kg, PO 10 mg/kg): 16.1 mL/min/kg
- Vd ([4]; study IV 1 mg/kg, PO 10 mg/kg): 2.8 L/kg
